Experimental data from US20250003011A1, “SAMPLE PREPARATION METHODS USING MODIFIED BASES FOR RAPID IDENTIFICATION AND SEQUENCING” (priority 2023, published 2025).

Legend:
MANTA polymerase [1] = target: T1, MANTA polymerase (Geobacillus stearothermophilus, UniProt P52026); test: Incorporation of two modified nucleotides in one fill-in reaction, distribution detected by antibodies on hairpins; assay type: biochemical; design: Bst DNA Polymerase, Large Fragment (e.g., Manta®); purchased; conditions: iodo-dUTP 5 μM and pseudo-dUTP 95 μM replacing dTTP; anti-iodouridine and anti-pseudouridine antibodies
T1 sequence (P52026 289-876 limits assumed): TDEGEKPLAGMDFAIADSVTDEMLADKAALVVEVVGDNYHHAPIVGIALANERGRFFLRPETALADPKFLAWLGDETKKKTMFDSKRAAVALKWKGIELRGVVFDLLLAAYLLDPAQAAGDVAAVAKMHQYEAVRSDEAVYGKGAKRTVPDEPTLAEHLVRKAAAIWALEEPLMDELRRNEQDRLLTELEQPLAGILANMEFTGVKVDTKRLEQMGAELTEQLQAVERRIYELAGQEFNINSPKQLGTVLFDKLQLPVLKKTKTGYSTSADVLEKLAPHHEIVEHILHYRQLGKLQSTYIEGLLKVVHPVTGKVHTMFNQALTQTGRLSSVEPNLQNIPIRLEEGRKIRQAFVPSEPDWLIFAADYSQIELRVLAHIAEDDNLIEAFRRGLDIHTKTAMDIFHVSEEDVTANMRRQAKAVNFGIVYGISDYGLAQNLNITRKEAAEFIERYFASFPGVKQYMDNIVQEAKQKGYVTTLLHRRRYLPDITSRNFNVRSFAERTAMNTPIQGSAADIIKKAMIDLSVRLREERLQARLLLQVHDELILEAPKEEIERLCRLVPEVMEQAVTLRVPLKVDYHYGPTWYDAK
Description: After synthesis, the hairpin was assembled and assessed with both anti-iodouridine antibody and anti-pseudouridine antibody.
FIG. 4B: For each molecule, we counted the number of positions detected by either the anti-IdU or anti-pseudouridine over the expected total number of positions for this sequence. We then plotted the distribution of each modification for all the functional molecules.
One of the 50 long oligonucleotides described in Example 3 was used as a template to incorporate two different modified nucleotides at the same time. Both iodo-dUTP as well as pseudo-dUTP were included in the nucleotide mix (at 5 μM and 95 μM respectively) during the replication step to completely replace the natural base dTTP. After synthesis of the complementary strand, the hairpin was assembled and assessed with both anti-iodouridine antibody (clone OTI2F8 from Abcam) and anti-pseudouridine antibody (Cat. No. C15200236, Diagenode) (FIG. 4A).
The distribution of each modified base in the hairpin was determined for each modification (FIG. 4B).

MANTA polymerase [2] = target: T1, MANTA polymerase; test: Measurement of the KD of modified uridine triphosphates, single-adenine template, FITC primer, PAGE; conditions: 65° C., 2 minutes; 100 μM dATP, dCTP, dGTP; no dTTP
Protocol: The reaction was supplemented with dATP, dCTP and dGTP as well as the uridine triphosphate tested (no dTTP was added to the reaction).
The KD is defined as the concentration of the modified dUTP required to produce 50% of fill in reaction. […] We then produced a second, simpler template comprising only one adenine in the template followed by 15 random bases excluding adenine (PS2972, SEQ ID NO:3). The template was designed such that the 3′ end of the complementary oligonucleotide tagged with FITC (PS1289, SEQ ID NO:4) ends at the base just before the adenine in the 32-base oligonucleotide. After annealing of these two oligonucleotides, there is thus only one A position where modified dUTP could be inserted (see FIG. 2A).
It was expected that if dCTP, dATP and dGTP were present in the reaction mix along with one of the modified uridine triphosphates, if the modified uridine was integrated by the polymerase, 16 bases would be added, thereby yielding a 32 base-long oligonucleotide tagged with FITC. […]
Polymerisation reactions were prepared with the Manta polymerase. […] Fluorescence of the reaction products were then quantified with ImageJ (National Institutes of Health).
For each modified uridine triphosphate, the ratio of fully extended product over the total amount of FITC-labelled oligonucleotide was calculated and plotted on a graph as a function of the concentration. […]

Manta DNA polymerase = target: T2, Manta DNA polymerase (Geobacillus stearothermophilus, UniProt P52026); test: Elongation (fill-in) assay on 200-mer template with modified uridine triphosphates; assay type: biochemical; conditions: modified nucleotide replaces dTTP at 100%; 65° C., 30 min
T2 construct: Bst DNA Polymerase, Large Fragment (e.g., Manta®); purchased
T2 sequence (P52026 289-876 limits assumed): T1 sequence (P52026 289-876 limits assumed)
Protocol: (§1) A synthetic template of 200 bases was used to determine the capacity of Deep Vent and Manta DNA polymerase to integrate modified uridine triphosphate. The synthesis was initiated from a 20 bases complementary oligonucleotide and various conditions were tested. In lanes 1 and 6, all triphosphate nucleotide except dTTP were added in the reaction mix according to the manufacturer recommendation (negative control) to determine if the polymerase is stopped at positions where it needs to integrate a thymidine. In lane 2, dTTP was added to the reaction mix as the positive control where full length construct should be obtained. In lanes 3 and 7, 4 and 8 and 5 and 9, IdU, FdU and CldU were added to the reaction mix respectively to replace at 100% the dTTP. […] This is not the case for the Manta DNA polymerase as the only product observed is where the polymerase should have integrated a thymidine.
(§2) In order to identify the proper DNA polymerase that can utilise modified uridine triphosphate, we performed an elongation assay with different DNA polymerases and various combination of nucleotide mixes, using a 22-mer primer (PS2508, SEQ ID NO: 1) annealed to a 200-mer template (PS2509, SEQ ID NO:2). As the template contains a lot of instances of adenines, there are multiple positions where the polymerase must be able to incorporate uridine to be able to produce full length fill in reaction.
(§3) On the other hand, when dTTP or dUTP was replaced with a modified dUTP, a full-length reaction product was detected for both Manta™ and DeepVent DNA polymerases.
(§4) The conditions for the fill in reaction were as follow: dATP, dGTP, dCTP and Iodo dUTP were prepared in a mix at 500 μM each and used at a final concentration of 100 μM final; 1 μl of Manta™ or DeepVent polymerase were used on 10 pmoles of the 200-mer (PS2509) with the 22-mer primer (PS2508) pre-annealed to initiate the fill-in.
(§5) The incubation was done for 30 min at 65° C. for the Manta or 72° C. for the DeepVent, in a MiniAmp thermalCycler (Applied Biosystems) with lid at 105° C. to prevent evaporation.

DeepVent DNA polymerase = target: T3, DeepVent DNA polymerase (Pyrococcus sp., UniProt Q51334, DEL493-1029); test: as above; assay type: biochemical; conditions: modified nucleotide replaces dTTP at 100%; 72° C., 30 min
T3 construct: purchased
T3 sequence (Q51334 other isoform, or with tags, fused parts or gaps DEL493-1029): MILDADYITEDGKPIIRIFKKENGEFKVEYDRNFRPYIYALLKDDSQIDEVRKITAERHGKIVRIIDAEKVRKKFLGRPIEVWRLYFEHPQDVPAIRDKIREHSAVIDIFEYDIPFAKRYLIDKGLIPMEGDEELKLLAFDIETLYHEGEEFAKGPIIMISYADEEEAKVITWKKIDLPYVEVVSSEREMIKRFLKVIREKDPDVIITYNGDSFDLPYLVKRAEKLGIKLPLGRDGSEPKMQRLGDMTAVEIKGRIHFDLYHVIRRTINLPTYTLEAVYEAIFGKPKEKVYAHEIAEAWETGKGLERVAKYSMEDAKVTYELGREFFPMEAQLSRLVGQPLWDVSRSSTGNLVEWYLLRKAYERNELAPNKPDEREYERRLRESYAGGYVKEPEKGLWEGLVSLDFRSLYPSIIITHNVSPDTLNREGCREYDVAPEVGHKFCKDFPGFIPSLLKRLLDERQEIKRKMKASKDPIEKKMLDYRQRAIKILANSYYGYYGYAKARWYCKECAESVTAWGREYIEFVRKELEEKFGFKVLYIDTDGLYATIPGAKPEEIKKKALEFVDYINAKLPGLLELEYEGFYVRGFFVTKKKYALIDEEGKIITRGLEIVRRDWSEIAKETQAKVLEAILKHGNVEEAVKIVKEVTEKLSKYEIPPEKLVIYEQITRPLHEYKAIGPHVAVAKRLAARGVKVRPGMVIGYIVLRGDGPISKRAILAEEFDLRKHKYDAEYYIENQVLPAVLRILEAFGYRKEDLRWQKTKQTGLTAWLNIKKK
Protocol: as §1, §2, §3, §4, §5

Molecule | distribution of each modified base in the final hairpin (MANTA polymerase [1]) | KD (concentration of the modified dUTP required to produce 50% of fill in reaction) compared with dTTP (MANTA polymerase [2]) | full length product in polymerisation reaction (Manta DNA polymerase) | full length product in polymerisation reaction (DeepVent DNA polymerase)
pseudouridine-5′-triphosphate | equal distribution | almost twice the KD of dTTP |  | 
O=c1[nH]c(=O)n([C@H]2C[C@H](O)[C@@H](COP(=O)(O)OP(=O)(O)OP(=O)(O)O)O2)cc1F [FdU, 5-fluoro-2′-deoxyuridine-5′-triphosphate] |  |  | full length products were obtained | full length products were obtained
O=c1[nH]c(=O)n([C@H]2C[C@H](O)[C@@H](COP(=O)(O)OP(=O)(O)OP(=O)(O)O)O2)cc1Cl [CldU, 5-chloro-2′-deoxyuridine-5′-triphosphate] |  |  | full length products were obtained | full length products were obtained
